Results on seven compounds are retold here after patent US6492353B1, “1,3-dihydroxy-20,20-cycloalkyl-vitamin D3analogs” (Syntex LLC, priority 1997, dated 2002).

“And” between values parts separate entries of the source, which are not always exact repeats. Equal values may be shown once.

Series [1] deals with rats with secondary hyperparathyroidism due to renal failure. Put plainly: Secondary hyperparathyroidism in the rat renal insufficiency model (7/8 nephrectomy). The format is in vivo. The conditions noted are these: 7/8 nephrectomized rats, 0.1 μg/kg/day oral, seven days; for PTH T=1-T=0: change in serum PTH; for Final Ca Levels: serum calcium. On the procedure:
Female sprague Dawley rats were anesthetized, their right kidney removed and 2-3 branches of the left renal artery were ligated to achieve 7/8 nephrectomy. They were placed on a high phosphorous diet (0.06% Ca and 0.08 phosphorous). Approximately 3-6 weeks after surgery, rats were bled to screen serum PTH levels and rats with PTH levels between 100-500 pg/ml were selected for the study.
There was a pre-bleed (T=0) and each group was dosed daily for seven days by oral […] with either the compound of Formula (I) (0.1 μg/kg/day), vehicle control or 1,25-(OH)2 vitamin D3 positive control. Compounds were predissolved in ethanol and diluted with vehicle (Miglyol 812) followed by evaporation of the ethanol.
After the last day of dosing, the animals were bled again (T=1) and sacrificed. Serum PTH assays were done with Nichols Institute Diagnostic Kit #40-2240. Serum calcium assays were done with Sigma Diagnostic Kit #587 with o-cresophthalein. Serum creatinine assays were done with Sigma Diagnostic Kit #1600-320 with ammonium molybdate.

The subject of series [2] is MCF-7 cells. In words: Cell proliferation assay in MCF-7 breast cancer cells. Format: cell-based. The following applies: Homo sapiens, MCF7, 168 h; MCF-7, 7 days of culture with analog, Coulter count; read-out: IC50, concentration causing 50% reduction in MCF-7 cell growth in culture. The protocol:
MCF-7 cells are human mammary carcinoma cells that are positive for estrogen receptors. The potential activity of vitamin D3 analogs against breast cancer was assessed from inhibition of proliferation of MCF-7 cells in culture.
MCF-7 cells were plated at 9000 cells/well in 24-well plates and incubated at 37° C. in 5% CO2/95% air in Dulbecco's Modified Eagle Medium containing 10% fetal bovine serum, 700 nM insulin, 2 mM glutarnine, 0.1 mM MEM non-essential amino acids and 1 mM sodium pyruvate. Stock solutions of vitamin D3 analogs were prepared at a concentration of 10 mM in absolute ethanol and stored at −20° C. under argon. Four days after plating, the number of MCF-7 were counted by removing the medium in 8 wells, rinsing the cells with 0.5 ml PBS without Ca/Mg and then incubating the cells with 0.3 ml of trypsin-EDTA. After 15 min., the trypsinization was stopped by adding 0.3 ml of medium. 0.2 ml aliquot was transferred from each well into dilu-vials containing 10 ml isoton and the number of cells were counted on Coulter Counter™ (Coulter, Miami, Fla.).
MCF-7 cells in the remaining wells were refed with either control medium or medium containing varying concentrations of the vitamin D3 analog. After a further 7 days of culture, the number of MCF-7 cells in each well was assessed by removing the medium, rinsing the cells with 0.5 ml PBS without Ca/Mg and then incubating the cells with 0.5 ml of trypsin-EDTA for 15 min. The trypsinization was stopped by adding 0.5 ml of medium and 0.1 ml aliquot from each well was transferred into dilu-vials containing 10 ml isoton and the number of cells were counted on Coulter Counter™.

The subject of series [3] is ovariectomized (Ovx) rats. In words: Bone anabolism in the ovariectomized rat. Format: in vivo. Also on record: Urine Calcium/Creatinine (6th Week): unit not given here. The following applies: for Whole Femur BMD: weeks 3-6 post-ovariectomy. The text has this:
Three month old rats are ovariectomized (Ovx) and administered either 1,25-dihydroxy vitamin D3 (vit. D in Table) or one of the compounds of the present invention once a day by mouth starting at 3 weeks post-ovariectomy and continuing until final sacrifice at 6 weeks postovariectomy. Control groups, both sham (rats that were not ovariectomized) and Ovx, received vehicle only. Blood and urine samples were collected twice, at 4 weeks post-ovariectomy and again at the 6 week mark and the amount of serum and urine calcium was determined. The final femoral calcium was determined upon sacrifice 6 weeks post-ovariectomy.
The bone mineral density of the right femur was determined by using a High Resolution Software Package on a QDR-1000W Bone Densitometer™ (Hologic, Walthan, Mass.). The animals were scanned by placing them on a scanning block in a supine position such that the right leg was perpendicular to the main body and the tibia was perpendicular to the femur. The increase in the bone mineral density and the amount of calcium in the urine and the serum for some of the compounds of this invention in this assay are given in the table below: […]

The subject of series [4] is women with postmenopausal osteoporosis. The conditions noted are these: cited from earlier work.
For series [5], the system named is ZR-75 cells. Put plainly: Cell proliferation assay in ZR-75 breast cancer cells (MTT). Format: cell-based. The following applies: Homo sapiens, ZR75, 240 h, ZR-75, 10 days of culture with analog, read-out: IC50, concentration corresponding to half-maximal reduction in 570 nm absorbance. On the procedure:
ZR-75 cells are human mammary carcinoma cells that are positive for estrogen receptors. The potential activity of vitamin D3 analogs against breast cancer was assessed from inhibition of proliferation of ZR-75 cells in culture.
ZR-75 cells were plated at 12,500 cells/well in 24-well plates and incubated at 37° C. in 5% CO2/95% air in RPMI medium containing 10% fetal bovine serum and 2 mM L-glutamine. Stock solutions of vitamin D3 analogs were prepared at a concentration of 10 mM in absolute ethanol and stored at −20° C. under argon. One day after plating, ZR-75 cells were refed with either control medium or medium containing varying concentrations of the vitamin D3 analog.

Consider `C=C1/C(=C\C=C2/CCC[C@]3(C)[C@@H]([C@H](C)CCCC(C)(C)O)CC[C@@H]23)C[C@@H](O)C[C@@H]1O` [1,25-di(OH)-cholecalciferol, 1,25-dihydroxy-cholecalciferol, reference compound], for which the “PTH T=1-T=0” value in series [1] was -18 pg/mL. Further, the Final Ca Levels in series [1] came to 9.75 mg/dL. Also, the IC50 in series [2] came out at 149 nM; in series [5], 13 nM. Further, in series [3] (0.200 μg/kg/day by mouth, listed as Vit D), the “Serum Calcium (6th Week)” value is 9.49 mg/dL and 10.65 mg/dL. In series [4] (mild to moderate postmenopausal osteoporosis, 0.25 microgram twice daily, after 3 years), the “lower rate of new vertebral fractures compared with elemental calcium 1000 mg/day” value is on record as 3 fold. Besides, in series [4] (overall), the tolerability entry is “well tolerated”. Besides, the steroid-induced bone loss entry in series [4] (patients starting prednisone or prednisolone, 0.5 to 1.0 micrograms/day plus calcium 1000 mg/day, with or without calcitonin) is listed as “prevented steroid-induced bone loss”.
In the case of `C=C1/C(=C\C=C2/CCC[C@]3(C)[C@@H](C4(C/C=C\C(O)(C(F)(F)F)C(F)(F)F)CC4)CC[C@@H]23)C[C@@H](O)C[C@@H]1O` [compound 5, 1,25-dihydroxy-23-(Z)-ene-26,27-hexafluoro-20,21,28-cyclopropyl-cholecalciferol], the IC50 in series [2] amounted to 0.03 nM; in series [5], 0.1 nM.
For `C=C1/C(=C\C=C2/CCC[C@]3(C)[C@@H](C4(CC#CC(O)(C(F)(F)F)C(F)(F)F)CC4)CC[C@@H]23)C[C@@H](O)C[C@@H]1O` [Cpd #3, 1,25-dihydroxy-23-yne-26,27-hexafluoro-20,21,28-cyclopropyl-cholecalciferol], in series [1], the “PTH T=1-T=0” value was -70 pg/mL and the Final Ca Levels was 10.7 mg/dL. The IC50 in series [2] worked out at 0.03 nM. Also, in series [3] (0.010 μg/kg/day by mouth), the “Serum Calcium (6th Week)” value was found to be 10.25 mg/dL, the “Urine Calcium/Creatinine (6th Week)” value came to 0.83 and the Whole Femur BMD is 0.24 g/cm². Moreover, the IC50 in series [5] turned out to be 0.01 nM.
For `C=C1/C(=C\C=C2/CCC[C@]3(C)[C@@H](C4(CC#CC(C)(C)O)CC4)CC[C@@H]23)C[C@@H](O)C[C@@H]1O` [compound 1, 1,25-dihydroxy-23-yne-20,21,28-cyclopropyl-cholecalciferol], the IC50 in series [2] came to 0.5 nM.
Regarding `C[C@]12CCC/C(=C\C=C3C[C@@H](O)C[C@H](O)C3)[C@@H]1CC[C@@H]2C1(C/C=C\C(O)(C(F)(F)F)C(F)(F)F)CC1` [compound 6, 1,25-dihydroxy-23-(Z)-ene-26,27-hexafluoro-20,21,28-cyclopropyl-19-norcholecalciferol], the IC50 in series [2] is 0.03 nM; in series [5], 0.1 nM.
For `CC(C)(O)C#CCC1([C@H]2CC[C@H]3/C(=C/C=C4C[C@@H](O)C[C@H](O)C4)CCC[C@]23C)CC1` [compound 2, 1,25-dihydroxy-23-yne-20,21,28-cyclopropyl-19-nor-cholecalciferol] the same measures were 0.3 nM and 0.9 nM.
With `C[C@]12CCC/C(=C\C=C3C[C@@H](O)C[C@H](O)C3)[C@@H]1CC[C@@H]2C1(CC#CC(O)(C(F)(F)F)C(F)(F)F)CC1` [Cpd #4, 1,25-dihydroxy-23-yne-26,27-hexafluoro-20,21,28-cyclopropyl-19-norcholecalciferol], in series [1], the “PTH T=1-T=0” value is -137 pg/mL and the Final Ca Levels came out at 10.1 mg/dL. In series [2], the IC50 was 0.05 nM. In series [3] (0.005 μg/kg/day by mouth), the “Serum Calcium (6th Week)” value is 8.94 mg/dL, the “Urine Calcium/Creatinine (6th Week)” value was 0.60 and the Whole Femur BMD was found to be 0.241 g/cm². Also, the IC50 in series [5] was found to be 0.15 nM.
